Results as given in patent US9826766B2 (priority 2012, dated 2017).

Columns and labels:
Settings in all cases: mouse, in vivo
[1] = tested on: enterotoxinogenic strain of Clostridium perfringens
[2] = tested on: enterotoxinogenic strain of Clostridium perfringens; parameters: species or system axenic C3H/He mice
[3] = tested on: enterotoxinogenic strain of Clostridium perfringens; parameters: species or system axenic C3H/He mice; remark: listed apart in the source

Q: `OC[C@H]1O[C@@H](O[C@H]2[C@H](O)[C@@H](O)C(O)O[C@@H]2CO)[C@H](O)[C@@H](O)[C@H]1O` (some centres unmarked) [Lactose] was tested. Which mice died [1] did it give?
A: Its mice died is 100%.

Q: What about the “Clostridium perfringens count, Blood” value [2] of the same molecule?
A: Its value is 2.3 log CFU/g.

Q: And the “Clostridium perfringens count, Cecum” value [2]?
A: Its value is 5.5 ± 0.8 log CFU/g.

Q: What about the “Clostridium perfringens count, Colon” value [2] of the same molecule?
A: The value was 6.6 ± 0.1 log CFU/g.

Q: What about the “Clostridium perfringens count, Ileum” value [2] of the same molecule?
A: The value was 3.4 ± 0.8 log CFU/g.

Q: And the “Clostridium perfringens count, Kidney” value [2]?
A: The value was 3.0 log CFU/g.

Q: And the “Clostridium perfringens count, Liver” value [2]?
A: Its value is 4.4 log CFU/g.

Q: And the “Clostridium perfringens count, Spleen” value [2]?
A: Its value is 4.2 log CFU/g.

Q: And the “bacterial translocation, in words” value [2]?
A: The value was “promotes bacterial translocation”.

Q: And the “colonization of the intestine vs control mice, in words” value [2]?
A: The value was “weak colonization of the intestine”.

Q: And the “Count (log CFU/g of feces) of Clostridium perfringens” value [3]?
A: The value was “Mice dead or dying”.
